Reference: patent US11931415B2, “Ophthalmic compositions” (The University of Liverpool, priority 2016, dated 2024)
Several values for one entry are separate records, joined by “and”; a condition that tells them apart may be missing. Equal entries are not always repeated.

How the values were obtained:
physchem = settings: SiO1000, oil or lipid
[1] = atRA saturation concentration in SiO and blends using tritiated atRA (liquid scintillation)
[2] = literature value; cited from earlier work

solubility (physchem): ~28 µg/mL and 95 µM | Saturation amount of atRA in SiO1000 blended with 1% PDMS-atRA ([1]; 1% (v/v) PDMS-atRA in SiO1000, after 2 weeks at ambient temperature, in air): 2.17 × 10^−3 M and 651.0 μg/mL | Saturation amount of atRA in SiO1000 blended with 5% PDMS-atRA ([1]; 5% (v/v) PDMS-atRA in SiO1000, after 2 weeks at ambient temperature, in air): 2.33 × 10^−3 M and 699.8 μg/mL | Solubility measured with tritiated atRA relative to the previous values ([1]; in SiO1000, tritiated atRA versus previous values): over 20 times | Saturation of atRA in SiO5000 ([1]; in SiO5000, tritiated atRA, n=1): 610 μg/mL and 2.03×10^−3 M
Structure (SMILES): CC1=C(/C=C/C(C)=C/C=C/C(C)=C/C(=O)O)C(C)(C)CCC1 [atRA, (2E,4E,6E,8E)-3,7-Dimethyl-9-(2,6,6-trimethylcyclohexen-1-yl)nona-2,4,6,8-tetraenoic acid]
Solubility reported for atRA in SiO1000 in the literature [2]: 20 μg/mL and 0.6×10^−4 M
